Reference: US20050159427A1, “N-acylsulfonamide apoptosis promoters” (priority 2003, published 2005)
Entries after “also recorded” stand apart in the source; their conditions may differ.

Tests used:
[1] = test system: NCI-H322M; experiment: Tumor cell viability (TABLE 1); assay type: cell-based; conditions: Homo sapiens, read-out: EC50 (50% reduction in cell viability); NCI-H322M (Non-Small Cell Lung); serum-free conditions, 48 hour treatment; mean ± SEM
[2] = test system: A549/ATCC; experiment: Tumor cell viability (TABLE 1); assay type: cell-based; conditions: Homo sapiens, read-out: EC50 (50% reduction in cell viability); A549/ATCC (Non-Small Cell Lung); serum-free conditions, 48 hour treatment; mean ± SEM
[3] = test system: HOP-62; experiment: Tumor cell viability (TABLE 1); assay type: cell-based; conditions: Homo sapiens, read-out: EC50 (50% reduction in cell viability); HOP-62 (Non-Small Cell Lung); serum-free conditions, 48 hour treatment; mean ± SEM
[4] = test system: DLD-1; experiment: Tumor cell viability (TABLE 1); assay type: cell-based; conditions: Homo sapiens, read-out: EC50 (50% reduction in cell viability); DLD-1 (Colorectal); serum-free conditions, 48 hour treatment; mean ± SEM
[5] = test system: BT-549; experiment: Tumor cell viability (TABLE 1); assay type: cell-based; conditions: Homo sapiens, read-out: EC50 (50% reduction in cell viability); BT-549 (Breast); serum-free conditions, 48 hour treatment; mean ± SEM
[6] = test system: HS-578T; experiment: Tumor cell viability (TABLE 1); assay type: cell-based; conditions: Homo sapiens, read-out: EC50 (50% reduction in cell viability); HS-578T (Breast); serum-free conditions, 48 hour treatment; mean ± SEM
[7] = test system: T47D; experiment: Tumor cell viability (TABLE 1); assay type: cell-based; conditions: Homo sapiens, read-out: EC50 (50% reduction in cell viability); T47D (Breast); serum-free conditions, 48 hour treatment
[8] = test system: NCI/ADR-RES; experiment: Tumor cell viability (TABLE 1); assay type: cell-based; conditions: Homo sapiens, read-out: EC50 (50% reduction in cell viability); NCI/ADR-RES (Breast); serum-free conditions, 48 hour treatment
[9] = test system: U251; experiment: Tumor cell viability (TABLE 1); assay type: cell-based; conditions: Homo sapiens, U-251, read-out: EC50 (50% reduction in cell viability); U251 (CNS); serum-free conditions, 48 hour treatment; mean ± SEM
[10] = test system: D54MG; experiment: Tumor cell viability (TABLE 1); assay type: cell-based; conditions: Homo sapiens, read-out: EC50 (50% reduction in cell viability); D54MG (Glioma); serum-free conditions, 48 hour treatment; mean ± SEM
[11] = test system: MALME-3M; experiment: Tumor cell viability (TABLE 1); assay type: cell-based; conditions: Homo sapiens, read-out: EC50 (50% reduction in cell viability); MALME-3M (Melanoma); serum-free conditions, 48 hour treatment; mean ± SEM
[12] = test system: OVCAR-3; experiment: Tumor cell viability (TABLE 1); assay type: cell-based; conditions: Homo sapiens, read-out: EC50 (50% reduction in cell viability); OVCAR-3 (Ovarian); serum-free conditions, 48 hour treatment; mean ± SEM
[13] = test system: OVCAR-8; experiment: Tumor cell viability (TABLE 1); assay type: cell-based; conditions: Homo sapiens, read-out: EC50 (50% reduction in cell viability); OVCAR-8 (Ovarian); serum-free conditions, 48 hour treatment; mean ± SEM
[14] = test system: SK-OV-3; experiment: Tumor cell viability (TABLE 1); assay type: cell-based; conditions: Homo sapiens, read-out: EC50 (50% reduction in cell viability); SK-OV-3 (Ovarian); serum-free conditions, 48 hour treatment; mean ± SEM
[15] = test system: MiaPaCa; experiment: Tumor cell viability (TABLE 1); assay type: cell-based; conditions: Homo sapiens, MIA PaCa-2, read-out: EC50 (50% reduction in cell viability); MiaPaCa (Pancreas); serum-free conditions, 48 hour treatment; mean ± SEM
[16] = test system: PC3; experiment: Tumor cell viability (TABLE 1); assay type: cell-based; conditions: Homo sapiens, PC-3, read-out: EC50 (50% reduction in cell viability); PC3 (Prostate); serum-free conditions, 48 hour treatment; mean ± SEM
[17] = test system: DU-145; experiment: Tumor cell viability (TABLE 1); assay type: cell-based; conditions: Homo sapiens, read-out: EC50 (50% reduction in cell viability); DU-145 (Prostate); serum-free conditions, 48 hour treatment; mean ± SEM
[18] = test system: ACHN; experiment: Tumor cell viability (TABLE 1); assay type: cell-based; conditions: Homo sapiens, read-out: EC50 (50% reduction in cell viability); ACHN (Renal); serum-free conditions, 48 hour treatment
[19] = test system: RXF-393; experiment: Tumor cell viability (TABLE 1); assay type: cell-based; conditions: Homo sapiens, read-out: EC50 (50% reduction in cell viability); RXF-393 (Renal); serum-free conditions, 48 hour treatment; mean ± SEM
[20] = test system: H146; experiment: H146 small cell lung cancer murine model; assay type: in vivo
Text: (H146 and SCLC xenograft) from human-derived small cell lung cancer isolated from smokers and nonsmokers, defective for Rb/p53 gene function, and expresseive of moderately high levels of Bcl-2.

[21] = test system: CCRF-CEM; experiment: CCRF-CEM systemic model of acute lymphoblastoid leukemia; assay type: in vivo, mouse
Text: CCRF-CEM is a p53-mutant acute lympoblastoid leukemia line of T-cell origin used as an animal (mouse) model of systemic leukemia involving intravenous inoculation of tumor cells. If left untreated, the mice succumb to disease within about 34 days post inoculation, at which time extensive tumor infiltration of spleen, liver, and bone marrow has occured.

[22] = test system: DoHH2 follicular lymphoma flank tumors; experiment: DoHH2 follicular lymphoma model; assay type: in vivo
[23] = test system: RS11380; experiment: RS11380 model of B-cell follicular lymphoma; assay type: in vivo
[24] = test system: human tumor cell lines derived from small cell lung carcinomas and lymphoid malignancies of both T-cell and B-cell origin; conditions: small cell lung carcinoma and T-cell / B-cell lymphoid malignancy cell lines
[25] = established flank tumors, sustained period of time

**Q.** How did the EC50 [1] turn out when CN(C)CC[C@H](CSc1ccccc1)Nc1ccc(S(=O)(=O)NC(=O)c2ccc(N3CCN(Cc4ccccc4-c4ccc(Cl)cc4)CC3)cc2)cc1[N+](=O)[O-] [EXAMPLE 2, N-(4-(4-((4′-chloro(1,1′-biphenyl)-2-yl)methyl)piperazin-1-yl)benzoyl)-4-(((1R)-3-(dimethylamino)-1-((phenylsulfanyl)methyl)propyl)amino)-3-nitrobenzenesulfonamide] was run?
**A.** Its EC50 is 4.1 ± 0.8 µM.

**Q.** What about the EC50 [2] of the same molecule?
**A.** Its EC50 is 5.2 ± 0.2 µM.

**Q.** And the EC50 [3]?
**A.** Its EC50 is 6.3 ± 6.7 µM.

**Q.** What about the EC50 [4] of the same molecule?
**A.** The EC50 was 0.99 ± 0.45 µM.

**Q.** And the EC50 [5]?
**A.** Its EC50 is 6.5 ± 2.3 µM.

**Q.** What about the EC50 [6] of the same molecule?
**A.** The EC50 was 7.2 ± 8.2 µM.

**Q.** What about the EC50 [7] of the same molecule?
**A.** The EC50 was > 10 µM.

**Q.** What about the EC50 [8] of the same molecule?
**A.** Its EC50 is > 10 µM.

**Q.** And the EC50 [9]?
**A.** The EC50 was 3.8 ± 2 µM.

**Q.** What about the EC50 [10] of the same molecule?
**A.** Its EC50 is 3.1 ± 2.5 µM.

**Q.** And the EC50 [11]?
**A.** Its EC50 is 1.9 ± 0.8 µM.

**Q.** What about the EC50 [12] of the same molecule?
**A.** Its EC50 is 1.9 ± 0.3 µM.

**Q.** What about the EC50 [13] of the same molecule?
**A.** The EC50 was 3.4 ± 0.8 µM.

**Q.** What about the EC50 [14] of the same molecule?
**A.** Its EC50 is 5.6 ± 1 µM.

**Q.** And the EC50 [15]?
**A.** Its EC50 is 1.4 ± 0.6 µM.

**Q.** What about the EC50 [16] of the same molecule?
**A.** The EC50 was 0.96 ± 0.38 µM.

**Q.** And the EC50 [17]?
**A.** The EC50 was 8.2 ± 1.1 µM.

**Q.** What about the EC50 [18] of the same molecule?
**A.** The EC50 was 1 µM.

**Q.** What about the EC50 [19] of the same molecule?
**A.** The EC50 was 2.9 ± 0.4 µM.

**Q.** What about the tumor regression ([20]; H146 model, in some cases tumor disappearance after prolonged therapy) of the same molecule?
**A.** The tumor regression was “complete regression of an established tumor”.

**Q.** What about the anti-tumor activity ([20]; H146 murine model, human-derived small cell lung cancer) of the same molecule?
**A.** The anti-tumor activity was “demonstrated anti-tumor activity”.

**Q.** And the “activity in leukemia model” value ([21]; CCRF-CEM T-cell acute lymphoblastoid leukemia model)?
**A.** The value was “significant activity”.

**Q.** And the survival ([21]; mice, intravenous inoculation of tumor cells)?
**A.** Its survival is “prolonged survival; also recorded: increased the average survival”.

**Q.** And the “tumor infiltration in liver and spleen (histopathology)” value ([21]; relative to controls)?
**A.** Its value is “lower tumor infiltration”.

**Q.** And the average spleen weight ([21]; relative to vehicle controls)?
**A.** The average spleen weight was “significant decrease in average spleen weight”.

**Q.** What about the “tumor regression, combination with Rituxin®” value [22, 25] of the same molecule?
**A.** The value was “complete regression of a significant percentage of established DoHH2 follicular lymphoma flank tumors”.

**Q.** What about the “tumor regression, combination with rapamycin” value [22, 25] of the same molecule?
**A.** Its value is “complete regression of a significant percentage of established DoHH2 follicular lymphoma flank tumors”.

**Q.** And the tumor growth ([22]; model of follicular lymphoma (DOHH-2))?
**A.** Its tumor growth is “inhibited tumor growth”.

**Q.** And the “activity in follicular lymphoma model” value [23]?
**A.** The value was “significant activity”.

**Q.** And the “therapeutic utility against human tumor cell lines” value [24]?
**A.** The value was “displayed therapeutic utility”.
